Source: publication PMC9171067, “A High Throughput Cell-Based Screen Assay for LINE-1 ORF1p Expression Inhibitors Using the In-Cell Western Technique” (Frontiers in Pharmacology, 2022)
Read-outs that look alike come from different tables or passages of the source.

What was measured:
[1] = test system: LINE-1 ORF1p expression; experiment: In-Cell Western (ICW) assay of LINE-1 ORF1p expression in T-47D cells; type: cell-based, human; details: for EC50: Homo sapiens, T47D, T-47D cells 15000/well, serially diluted compound, 24 h incubation, ICW, read-out: EC50 for diminishing LINE-1 ORF1p expression level; for Inhibition Activity (%) of LINE-1 ORF1p expression: ICW screen, T47D cells, compounds 10 μM, 48 h
Protocol: T-47D cells grown at 1×10^3 cells per well in 96-well plates (Corning Incorporated Costar, #3603). After 24 h incubation, chemical compounds (10 μM) were added to each well. After 48 h incubation, plates were fixed with 4% paraformaldehyde (PFA) for 20min at room temperature (RT). Then the cells were permeabilized with 0.2% Triton X-100 for 15min at RT, and blocked with Odyssey Blocking Buffer (TBS) (LI-COR, 9275000) for 1 h at RT. The cells were incubated at 4°C overnight with a rabbit monoclonal anti-ORF1p antibody (diluted 1:200, Abcam) and a mouse monoclonal anti-beta-actin antibody (diluted 1:250, Abcam) with gentle shakes. After five washes with PBS, the cells were stained with an IRDye® 800RD Goat anti-Rabbit antibody (diluted 1:400, LI-COR, #926–68071) and IRDye® 680CW Goat anti-Mouse antibody (1:600, LI-COR, #926–32210) at RT for 2 h. The microplates, were scanned with the Odyssey system (LI-COR), and the integrated fluorescence intensities representing the protein expression levels were acquired using Image Studio Ver 5.2 software ([Egorina et al., 2006]). Compared with DMSO control, compounds with an inhibition rate over 50% were defined as promising compounds.
(§1) The 50% cytotoxic concentration (CC50) values of 5 drug leads were measured using normal […] cell line HUVEC and breast cancer cell line T-47D at 6 different inhibitor concentrations. HUVEC and T47-D cell lines in the logarithmic phase were reseeded into 96-well plates (Nest Inc.) at a density of 1×10^3 cells/well and the plates were incubated for up to 2 days. At the end of each experiment, cells were incubated with 10 µl of the CCK-8 reagent (Vazyme) at 37°C for 2 h. The optical density (OD) at 450 nm was measured by a microplate reader (PerkinElmer Inc.) according to the manufacturer’s instructions. The data are expressed as % of the control. The experiments were repeated at least three times. The 50% effective concentration (EC50) of 5 drugs were measured using breast cancer cell line T-47D and 6 different inhibitor concentrations.

[2] = CCK-8 cell viability (CC50) in T-47D cells; type: cell-based; details: human
Protocol: as §1

[3] = test system: LINE-1 5'-UTR promoter; experiment: L1-FL luciferase reporter driven by the LINE-1 5'-UTR promoter in 293 T cells; type: cell-based, human
[4] = test system: LINE-1 retrotransposition; experiment: LINE-1 retrotransposition dual-luciferase assay (pWA367 reporter) in HeLa cells; type: cell-based, human; details: 10 μM
Protocol: This assay is utilized to measure the influence of the compounds on LINE-1 retrotransposition or the L1 5′UTR promoter activity. A 200:1 ratio of FL-L1 or pWA367 and pCMV-Rluc was transfected into HeLa cells, Rluc was served as a control to normalize the Firefly luciferase activity level. Six hours post-transfection, cells were reseeded in 96-well plates, and the plates were incubated for up to 1 day. Next, compounds #1:Hydroxyprogesterone (10μM, 20 μM), # 2: 2,2':5′,2″-Terthiophene (10μM, 20 μM) and # 3: Ethynyl estradiol (10μM, 20 μM) were added. 72–96 h after adding tested compounds to the cells, 25 μl passive lysis buffer was added in each well to lyse cells, and then, 20 μl lysate was detected by dual-luciferase reporter assay system (Promega, USA). Furthermore, the activity levels of Renilla and Firefly luciferase were quantified using Promega Luciferase Assay Kit (Promega) on a Berthold microplate reader.

[5] = test system: LINE-1 ORF1p expression; experiment: Immunoblotting of LINE-1 ORF1p in T-47D cells; type: cell-based, human; details: 48 h
Protocol: Cells were collected and lysed with NP-40 buffer (Beyotime). The protein lysis was boiled for 20 min at 100 C in SDS-PAGE loading buffer. Equal amounts of cell lysate were […]. Proteins were transferred onto a PVDF membrane, blocked with 5% skim milk, and probed with anti-ORF1p antibody (diluted 1:1000) and anti-β-actin antibody (diluted 1:5,000) at 4°C overnight. After four wash steps with PBS plus 0.1% Tween 20 (PBST), the membrane was incubated with 1:5,000 dilution of HRP-conjugated goat-anti-mouse, HRP-conjugated goat-anti-rabbit, IRDye® 800CW Goat anti-Rabbit 926–32,211 (1:10,000, LI-COR) and IRDye® 700CW Goat anti-Mouse 926–32,210 (1:10,000, LI-COR) secondary antibodies for 1 h at room temperature. After four wash steps with PBS plus 0.1% Tween 20 (PBST), signals were detected using Western Lightning chemiluminescence reagent or analyzed with the Odyssey infrared imaging system and the software program as specified in the Odyssey software manual.

[6] = test system: LINE-1 RNA; experiment: RT-qPCR of LINE-1 RNA level in T-47D cells; type: cell-based, human; details: IFNα17 200 Units/mL, 48 h
Text: Total RNA was extracted from cells using TRIZOL Reagent (Invitrogen). RNA was reverse transcribed to cDNA using MLV Reverse Transcriptase (Invitrogen) with random primers. The cDNAs were quantified using SsoFast EvaGreen Supermix (Bio-Rad) with Bio Rad iCycler iQ5 Real-Time PCR systems. Primer sequences for cDNAs were as follows: (5′-AATGAGATCACATGGACACAGGAAG-3’/5′- TGTATACATGTGCCATGCTGGTGC-3′).

[7] = test system: NCl-H661 cells; experiment: CCK8 cell proliferation assay, NCl-H661; type: cell-based, human; details: IFNα17 200 or 500 Units/mL, 6 days
Protocol: (§2) To analyze the anti-proliferation effects of the three compounds and IFN17α against carcinoma cells, NCI-H661, NCI-H446, T47-D, MRC-5 and WI-38 cell lines in the logarithmic phase were reseeded into 96-well plates (Nest Inc.) at a density of 1×10^4 cells/well and the plates were incubated for 24 h. Next, IFN17α (200U/mL) was incubated with NCI-H661, NCI-H446, T47-D and MRC-5 cells, compounds #1(Hydroxyprogesterone), #2 (2,2':5′,2″-Terthiophene) and #3 (Ethynyl estradiol) were added at the concentrations of 10μM and 20 μM respectively, for consecutive 6 days. Cells were incubated with 10 µl of the CCK-8 reagent (Vazyme) each day at 37°C for 2 h. The optical density (OD) at 450 nm was measured by a microplate reader (PerkinElmer Inc.) according to the manufacturer’s instructions. The experiments were repeated at least three times.

[8] = test system: NCl-H446 cells; experiment: CCK8 cell proliferation assay, NCl-H446; type: cell-based, human; details: IFNα17 200 or 500 Units/mL, 6 days
Protocol: as §2

[9] = test system: T47D cells; experiment: CCK8 cell proliferation assay, T47D; type: cell-based, human; details: IFNα17 500 Units/mL, 6 days
Protocol: as §2, with “Next, IFN17α (200U/mL) was incubated with NCI-H661, NCI-H446, T47-D and MRC-5 cells, compounds #1(Hydroxyprogesterone), #2 (2,2':5′,2″-Terthiophene) and #3 (Ethynyl estradiol) were added at the concentrations of 10μM and 20 μM respectively, for consecutive 6 days.” left out

## c1csc(-c2ccc(-c3cccs3)s2)c1 [#2, 2,2':5′,2″-Terthiophene]
[1]
  EC50: 32.3 µM
  Inhibition Activity (%) of LINE-1 ORF1p expression: 56%
[2]
  CC50: 95.5 µM
[3]; 10 μM
  effect on luciferase value (L1-FL): mild effects

## C#C[C@]1(O)CC[C@H]2[C@@H]3CCc4cc(O)ccc4[C@H]3CC[C@@]21C [#3, Ethynyl estradiol]
[1]
  EC50: 12.4 µM
  Inhibition Activity (%) of LINE-1 ORF1p expression: 60%
[2]; T-47D breast cancer cells, T-47D cells 1000/well, CCK-8, read-out: CC50
  CC50: 91.4 µM
[3]; 10 μM
  suppression of luciferase value (L1-FL): over 60%
[4]
  effect on LINE-1 retrotransposition (Fluc/Rluc): best potent activity

## Cc1cn([C@H]2C=C[C@@H](CO)O2)c(=O)[nH]c1=O [d4T, reference compound]
[4]
  effect on LINE-1 retrotransposition (Fluc/Rluc): inhibited LINE-1 retrotransposition
[5]
  effect on LINE-1 ORF1p level by immunoblotting: little effect

## IFNα17: interferon used as positive control in inhibiting LINE-1 ORF1p expression level in the ICW assay
[1]; T-47D cells, increasing doses of IFNα17
  effect on ICW fluorescence value (ORF1p): decreased fluorescence value in a dose-dependent way
[6]
  suppression of LINE-1 RNA level: over 60%
[3]; IFNα17 200 Unit/mL, 500 Unit/mL
  effect on luciferase value (L1-FL): mild effects
[5]
  effect on LINE-1 ORF1p level by immunoblotting: obviously decrease ORF1p level in a dose-dependent manner
[7]
  effect of IFNα17 on proliferation of NCl-H661: significantly decrease
[8]
  effect of IFNα17 on proliferation of NCl-H446: significantly decrease
[9]
  effect of IFNα17 on proliferation of T47D: inhibition became obvious
